Reference: patent EP4722246A1, “TEM8-TARGETED ANTIBODY OR ANTIGEN-BINDING FRAGMENT THEREOF, AND USE THEREOF” (Inxmed (Nanjing) Co., Ltd., priority 2023, dated 2024)
Starred links: 1 amine or outer side, 2 acyl side, 3 side chain; linkers in the order of their positions; H or OH if unused. Non-standard residues stand in square brackets, D forms with d. Residues, ends and D or L forms follow the SMILES beside them. *: point of attachment. Dolaproine = CO[C@@H]([C@@H]1CCCN1)[C@@H](C)C(=O)O; Hexanoyl(6-maleimido) = O=C1C=CC(=O)N1CCCCCC(=O)*; Dil = CC[C@H](C)[C@H](NC)[C@@H](CC(=O)O)OC; PABC = O=C(OCc1ccc(N[*:1])cc1)[*:2]; X1 = C[C@@H](N*)[C@@H](O)c1ccccc1; Cit = NC(=O)NCCC[C@H](N)C(=O)O; NMeV = CN[C@H](C(=O)O)C(C)C

System: HCT116
Experiment: ADC in vitro cell killing assay (CCK-8)
Format: cell-based, human
Settings: HCT116, 72 h
Description: HCT116 (Cat: CBP60028, Cobioer Biosciences Co., Ltd.) in the logarithmic growth phase was trypsinized, plated in a 96-well plate at 3000 cells/well in 100 µL, and the plate was incubated in a 37°C, 5% CO2 incubator for 24 h. ADC was subjected to a 5-fold serial dilution with cell culture medium (Ham's F-12K, 10% FBS, AusGenex, Cat:FBS500-S) starting from 30000nM, yielding 10 concentration gradients. 10 µL of the diluted sample was added to the cell plate for mixing well, and the plate was incubated in a 37°C, 5% CO2 incubator for 72 h. 10 µL of Cell Counting Kit-8 (CellorLab, CX001) was added to the plate, and the plate was incubated in a 37 °C, 5% CO2 constant temperature incubator for 3 h. The absorbance value at 450 nm was measured with a microplate reader. Data was analyzed with Graphpad, with the in vitro killing activity of TEM8 antibody-drug conjugate shown in Table 5 and the IC50 curve shown in FIG. 4. Table 5: In vitro killing activity of TEM8 antibody-drug conjugate or linker + payload or payload

SMILES | IC50
CC[C@H](C)[C@@H]([C@@H](CC(=O)N1CCC[C@H]1[C@H](OC)[C@@H](C)C(=O)N[C@H](C)[C@@H](O)c1ccccc1)OC)N(C)C(=O)[C@@H](NC(=O)[C@@H](NC)C(C)C)C(C)C [MMAE] (H-[NMeV]V[Dil][Dolaproine]-X1) | 14.8 nM
CC[C@H](C)[C@@H]([C@@H](CC(=O)N1CCC[C@H]1[C@H](OC)[C@@H](C)C(=O)N[C@H](C)[C@@H](O)c1ccccc1)OC)N(C)C(=O)[C@@H](NC(=O)[C@H](C(C)C)N(C)C(=O)OCc1ccc(NC(=O)[C@H](CCCNC(N)=O)NC(=O)[C@@H](NC(=O)CCCCCN2C(=O)C=CC2=O)C(C)C)cc1)C(C)C [VcMMAE] ({Hexanoyl(6-maleimido)}-V[Cit][PABC][NMeV]V[Dil][Dolaproine]-X1) | 1280 nM
